How the values were obtained:
fMet-Leu-Phe receptor = biological target: T1, fMet-Leu-Phe receptor (Homo sapiens, UniProt P21462); assay: cAMP Assay
T1 sequence (P21462 whole entry): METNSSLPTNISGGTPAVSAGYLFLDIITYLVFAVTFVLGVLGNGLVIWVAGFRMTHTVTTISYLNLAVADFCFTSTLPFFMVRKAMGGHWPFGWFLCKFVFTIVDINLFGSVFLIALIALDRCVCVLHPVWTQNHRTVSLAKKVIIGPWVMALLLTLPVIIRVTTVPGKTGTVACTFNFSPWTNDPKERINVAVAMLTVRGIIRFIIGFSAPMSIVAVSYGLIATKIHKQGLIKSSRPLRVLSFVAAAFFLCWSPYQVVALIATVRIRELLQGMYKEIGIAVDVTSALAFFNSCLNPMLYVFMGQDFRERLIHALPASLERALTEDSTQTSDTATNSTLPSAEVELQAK
Procedure: (§1) FPR2 and FPR1 Cyclic Adenosine Monophosphate (cAMP) Assays were used to measure the activity of the compounds in this patent. FPR2 and FPR1 Cyclic Adenosine Monophosphate (cAMP) Assays. A mixture of forskolin (5 μM final for FPR2 or 10 μM final for FPR1) and IBMX (200 μM final) were added to 384-well Proxiplates (Perkin-Elmer) pre-dotted with test compounds in DMSO (1% final) at final concentrations in the range of 0.020 nM to 100 μM. Chinese Hamster Ovary cells (CHO) overexpressing human FPR1 or human FPR2 receptors were cultured in F-12 (Ham's) medium supplemented with 10% qualified FBS, 250 μg/ml zeocin and 300 μg/ml hygromycin (Life Technologies). Reactions were initiated by adding 2,000 human FPR2 cells per well or 4,000 human FPR1 cells per well in Dulbecco's PBS (with calcium and magnesium) (Life Technologies) supplemented with 0.1% BSA (Perkin-Elmer). The reaction mixtures were incubated for 30 min at room temperature. The level of intracellular cAMP was determined using the HTRF HiRange cAMP assay reagent kit (Cisbio) according to manufacturer's instruction. Solutions of cryptate conjugated anti-cAMP and d2 flurorophore-labelled cAMP were made in a supplied lysis buffer separately. Upon completion of the reaction, the cells were lysed with equal volume of the d2-cAMP solution and anti-cAMP solution.

[1] = biological target: T2, N-formyl peptide receptor 2 (Homo sapiens, UniProt P25090); assay: cAMP Assay
T2 sequence (P25090 whole entry): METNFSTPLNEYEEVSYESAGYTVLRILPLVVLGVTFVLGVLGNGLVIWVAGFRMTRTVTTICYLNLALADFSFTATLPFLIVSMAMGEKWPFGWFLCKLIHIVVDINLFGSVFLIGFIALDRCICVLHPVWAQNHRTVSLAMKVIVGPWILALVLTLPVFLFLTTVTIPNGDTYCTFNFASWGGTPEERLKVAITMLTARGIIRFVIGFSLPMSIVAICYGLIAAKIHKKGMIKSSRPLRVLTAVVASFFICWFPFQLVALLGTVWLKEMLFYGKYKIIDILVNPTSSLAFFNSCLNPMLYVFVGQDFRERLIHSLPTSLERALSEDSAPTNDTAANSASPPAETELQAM
Procedure: as §1

SMILES	EC50 (fMet-Leu-Phe receptor)	EC50 [1]
COCCn1cccc(N2C[C@@H](c3ccc(Cl)cc3)[C@H](NC(=O)NC3CCc4cc(OC)ccc4C3)C2=O)c1=O (some centres undefined) [US20230303513, Example 55]	> 10 µM	0.0062 µM
COCC(CO)n1cccc(N2C(=O)[C@@H](NC(=O)N[C@H]3CC[C@H](C(F)F)CC3)[C@H](c3c(F)cc(OC)cc3F)[C@@H]2C)c1=O (some centres undefined) [US20230303513, Example 63]	3.6 µM	0.041 µM

— BindingDB's records for patent US20230303513 (Bristol-Myers Squibb, 2023)
